{"source": "patent US20120064505A1", "about": "“MEASUREMENT OF MATERIAL PROPERTIES AND RELATED METHODS AND COMPOSITIONS” (Massachusetts Institute of Technology, priority 2010, published 2012)", "key": {"[1]": {"system": "Acute promyelocytic leukemia cells", "conditions": "differentiated down the neutrophil lineage for three days; cited from earlier work"}, "[2]": {"system": "P. falciparum-infected RBCs (iRBCs) and co-cultured uninfected RBCs (uRBCs)", "test": "Microfluidic deformability cytometer: RBC mobility after artesunate treatment", "format": "cell-based, human", "conditions": "for separation resolution between iRBCs and uRBCs: after drug treatment vs without", "experimental": "The deformability of both iRBCs and uRBCs were measured at 2, 4 and 6 hours after artesunate drug treatment (FIG. 60). A synchronized culture of rings with ˜15% parasitemia was resuspended at 0.1% hematocrit in malaria culture medium containing 0.01, 0.05 or 0.1 μg/ml of artesunate.\nLayout program CleWin3.0 was used to design the microfluidic device, which consists of a 500×500 μm^2 inlet reservoir, a 500×500 μm^2 outlet reservoir, and parallel capillary channels with triangular pillar arrays (FIG. 55A). Three different pore-size of 2.5, 3.0 and 4.0 μm were designed for the capillary channels to test optimum deformation condition for the experiment. A silicon mold of the device was made using standard silicon processing techniques. The photolithography step was done using a 5× reduction step-and-repeat projection stepper (Nikon NSR2005i9, Nikon Prevision) and reactive-ion etching (RIE) techniques were used to give the mold a final depth of 4.2 μm. Final device was then casted from the silicon mold using polydimethylsiloxane (PDMS) and was sealed by a glass slide using oxygen plasma.\nP. falciparum 3D7A parasites (from Malaria Research and Reference Reagent Source, American Type Culture Collection) were cultured in leukocyte-free human RBCs (Research Blood Components, Brighton Mass.) in RPMI 1640 complete medium as described (Trager and Jensen J. parasitol. 2005). Parasites cultures were synchronized by sorbitol lysis (Lambros, C 1979 J. parasitol.) two hours after merozoite invasion.\n1× Phosphate buffered saline (PBS) was mixed with 1% w/v Bovine Serum Albumin (BSA) (Sigma-Aldrich, St. Louis, Mo.) as a stock solution and was fresh made on every experimental day. For experiments tracking fluid flow velocity, 200 nm FluoSpheres europium luminescent microspheres (Molecular Probes, Eugene, Oreg.) were used at a final concentration of 5.0×10^−[…] percent solids. For experiments involving only healthy RBCs, fresh whole blood (Research Blood Components, Brighton, Mass.) was used at 100 times dilution (i.e. 1 μl whole blood with 99 μl stock solution). For experiments involving parasitized cells, 1 ml of cultured cells were spun down at 1,000 rpm for 5 minute; 1 μl of the pellet was then aliquot to 200 μl stock solution.\n10 μl of 1×10^−6M thiazole orange Orange (Invitrogen, Carlsbad, Calif.), which stains the RNA of the cell, was added to the aforementioned 200 μl iRBC solution 20 minutes before the experiment. The infected cells would appear fluorescent under the GFP filter set whereas the uninfected cells were seen as dark shadows.\nTo control the ambient temperature, the microscope surface was replaced by a heating chamber (Olympus), which was preheated to a desired temperature range (i.e. 30-40° C.) for 30 minutes before the beginning of every experiment. […]"}, "RBCs": {"system": "RBCs", "test": "Deformability cytometer: velocity and passage of glutaraldehyde-treated RBCs", "format": "cell-based, human", "conditions": "30 minutes in PBS; about 0.61 Pa/μm; FIG. 5B", "excerpt": "A mold of the device was made on a silicon wafer using photolithography and reactive-ion etching techniques. A 5× reduction step-and-repeat projection stepper (Nikon NSR2005i9, Nikon Precision) was used for patterning. The spacing between pillars was 3 μm, and the depth of the device was 4.2 μm. The device was made using standard PDMS casting protocols and bonded to a glass slide.\nPBS was mixed with 0.2% w/v Pluronic F-108 (BASF, Mount Olive, N.J.) and 1% w/v Bovine Serum Albumin (BSA) (Sigma-Aldrich, St. Louis, Mo.) as a stock solution to prevent RBC adhesion to the device walls. For the fluorescent bead experiments, 200 nm FluoSpheres europium luminescent microspheres (Molecular Probes, Eugene, Oreg.) diluted to a final concentration of 1.25×10^−5 percent solids were used.\nIn experiments involving blood, 1 μl of whole blood (−50% hematocrit) was diluted in 100 μl of the PBS-pluronic-BSA solution for all of the experiments. In experiments involving parasites that express GFP, no further treatment was performed. In experiments involving healthy RBCs, 1 μl of whole blood (Research Blood Components, Brighton, Mass.), 1 μl of 50 μg/ml of Cell Tracker Orange (Invitrogen, Carlsbad, Calif.), and 98 μl of PBS were mixed with the indicated concentration of glutaraldehyde and allowed to sit for 30 minutes. The sample was then washed 3 times with the PBS-Pluronic-BSA solution. […]"}, "WAS−/− T cells [3]": {"system": "WAS−/− T cells", "test": "In vitro Transwell cell migration toward CCL19 (WAS−/−)", "format": "cell-based, mouse", "conditions": "seven hours of exposure to CCL19; 5-μm pore Transwell", "experimental": "(§1) Enriched WT and WAS−/− T cells in DMEM with 1% BSA and 0.1% Pen/Strep were induced to migrate through polycarbonate Transwell inserts (Costar, Cambridge, Mass.) with 5-μm pores in a 24-well plate toward a CCL19 chemokine source (R&D Systems, Minneapolis, Minn.). Inserts contained 5×10^5 cells in 100 μL of medium, and wells contained 1 mL of medium with either no CCL19 or 100 ng/mL of CCL19. Cells were allowed to migrate for ˜7 hours at 37° C., and those that crossed the membrane were collected and used for MPA studies."}, "WT T cells": {"system": "WT T cells", "test": "Micropipette aspiration of chemokine-stimulated migratory T cells (WT)", "format": "cell-based, mouse", "experimental": "(§2) Cells from the peripheral lymph nodes and the spleen of Balb/c mice and WAS−/− mice on Balb/c background were pooled and enriched using the EasySep Mouse CD8+ T Cell Enrichment Kit from STEMCELL Technologies (British Columbia, Canada). Enrichment was confirmed using fluorescence-activated cell sorting (FACS) by staining the cells with FITC/anti-Thy1.2 and PE/anti-CD8α antibodies (Abs). The'memory T cell population was assessed by evaluating the expression of CD44 and CD62L via FACS. T cells in an activation medium with 100 units/mL IL-2 and 1% anti-CD28 Ab were activated by plate-bound anti-CD3 Abs for 4 day at 37° C. The activation medium included RPMI with 10% FBS, 10 mM HEPES (1M), 1% NEAA, 1% sodium pyruvate (100 mM), 50 μM β-mercaptoethanol, 4 mM L-glutamine, and 100 μg/mL Pen/Strep. Cell activation was verified via FACS measurement of CD25.\n(§3) Micropipettes made using a micropipette puller were trimmed to 2.5-3 or 4.5-5 μm inner diameter for testing naïve and activated T cells. MPA glass chambers consisted of a 24 mm×60 mm microscope coverslip bottom, a U-shaped parafilm spacer, and a 22 mm×22 mm microscope coverslip top. The assembly was baked for two hours at 80° C. to ensure good adhesion between the components.\nas §1\n3×10^5 cells in 100 μL RPMI with 10% FBS and 1% HEPES was stained with 10 μL trypan blue. The mixture was added to 600 μL of either the RPMI medium or the T cell activation medium with IL-2 for naïve and activated T cell testing. […] The cell movement in the micropipette was recorded with a CCD camera. […]"}, "WAS−/− T cells [4]": {"system": "WAS−/− T cells", "test": "Micropipette aspiration of chemokine-stimulated migratory T cells (WAS−/−)", "format": "cell-based, mouse", "conditions": "naïve WAS−/− T cells that migrated toward CCL19 100 ng/mL, ~7 hours; mean+/−SD", "experimental": "as §2\nas §3, with “components. […]” for “components.”\n3×10^5 cells in 100 μL RPMI with 10% FBS and 1% HEPES was stained with 10 μL trypan blue. […] The cell movement in the micropipette was recorded with a CCD camera. […]"}}, "note": "“Also recorded” adds a separate entry of the source."}
{"molecule": "CC1=C(/C=C/C(C)=C/C=C/C(C)=C/C(=O)O)C(C)(C)CCC1", "note": "[all-trans retinoic acid]", "values": [{"measurement": "compliance increase vs control", "setting": "[1]", "value": 45, "unit": "%"}]}
{"molecule": "C[C@H]1[C@H](OC(=O)CCC(=O)O)O[C@@H]2O[C@@]3(C)CC[C@H]4[C@H](C)CC[C@@H]1[C@@]24OO3", "note": "[artesunate]", "values": [{"measurement": "cell mobility change due to drug treatment", "setting": "[2]; FIG. 60, 2, 4 and 6 hours, 0.01 to 0.1 μg/ml", "value": "significant decrease in cell mobility"}, {"measurement": "stiffening effect on iRBCs and uRBCs", "setting": "[2]; after artesunate treatment", "value": "stiffening effect on both iRBCs and uRBCs; also recorded: both iRBCs and uRBCs stiffened considerably"}, {"measurement": "separation resolution between iRBCs and uRBCs", "setting": "[2]", "value": "almost doubled"}, {"measurement": "separation resolution between iRBCs and uRBCs", "setting": "[2]; listed as Artesunate", "value": "doubled"}]}
{"molecule": "O=CCCCC=O", "note": "[glutaraldehyde]", "values": [{"measurement": "RBC stiffness / velocity with increasing concentration", "setting": "RBCs", "value": "progressively stiffer with decreasing velocity"}]}
{"molecule": "CCL19: chemokine (R&D Systems) used as chemoattractant for T cells (protein, UniProt Q99731 22-98, looked up) C-C motif chemokine 19: GTNDAEDCCLSVTQKPIPGYIVRNFHYLLIKDGCRVPAVVFTTLRGRQLCAPPDQPWVERIIQRLQRTSAKMKRRSS", "values": [{"measurement": "cells migrated", "setting": "WAS−/− T cells [3]", "value": "~6.4", "unit": "%"}, {"measurement": "reduction of modulus from the value in the absence of CCL19", "setting": "WT T cells; migratory WT cells", "value": "more than 2 times"}, {"measurement": "stiffness relative to activated cells", "setting": "WT T cells; migratory WT cells vs activated WT T cells", "value": "about 1.4 times"}, {"measurement": "average apparent Young's modulus", "setting": "WT T cells; naïve WT T cells that migrated toward CCL19 100 ng/mL, ~7 hours, mean+/−SD", "value": "128+/−33 Pa"}, {"measurement": "average apparent Young's modulus", "setting": "WAS−/− T cells [4]", "value": "152+/−102 Pa"}]}
